Values quoted from earlier work as cited in patent publication US10927398B2, “Compositions for CYP450 phenotyping using saliva samples” (Concordia University, Inc., priority 2015, dated 2021).
Read-outs that look alike come from different tables or passages of the source.

Experiments:
[1] = cited from earlier work
plasma protein = conditions: cited from earlier work
[2] = cited from earlier work; remark: listed apart in the source
[3] = Table of Exemplary Drugs, CYP2C19
[4] = Table of Exemplary Drugs, CYP3A4
[5] = Table of Exemplary Drugs, CYP1A2
[6] = Table of Exemplary Drugs, CYP2D6
[7] = Table of Exemplary Drugs, CYP2C9

For `COc1ccc2nc([S@@+]([O-])Cc3ncc(C)c(OC)c3C)[nH]c2c1` [Esomeprazole], the “ORAL BIOAVAILABILITY” value [1, 3] is given as 90%, the “PLASMA PROTEIN BINDING” value (plasma protein; [3]) is given as 97% and the “HALF-LIFE” value [2, 3] is given as 1.5 h.

For `Clc1ccc2c(c1)C(c1ccccc1)=NCc1nncn1-2` [Estazolam (ProSom), Estazolam], the “ORAL BIOAVAILABILITY” value [1, 4] is given as 93%, the “PLASMA PROTEIN BINDING” value (plasma protein; [4]) is given as 93% and the “HALF-LIFE” value [2, 4] is given as 10 to 24 h.

In the case of `C[C@]12CC[C@@H]3c4ccc(O)cc4CC[C@H]3[C@@H]1CC[C@@H]2O` [Estradiol], the “ORAL BIOAVAILABILITY” value [1, 5] is listed as 43%, the “PLASMA PROTEIN BINDING” value (plasma protein; [5]) is listed as greater than 95% and the “HALF-LIFE” value [2, 5] is listed as 36 h.

For `C#C[C@]1(O)CC[C@H]2[C@@H]3CCc4cc(O)ccc4[C@H]3CC[C@@]21C` [Ethinyl Estradiol], the “ORAL BIOAVAILABILITY” value [1, 4] is listed as 38-48%, the “PLASMA PROTEIN BINDING” value (plasma protein; [4]) is listed as 97-98% ^ and the “HALF-LIFE” value [2, 4] is listed as 7 to 36 h.

For `C=C1C[C@@H]2[C@H](CC[C@]3(C)C(=O)CC[C@@H]23)[C@@]2(C)C=CC(=O)C=C12` [Exemestane (Aromasin), Exemestane], the “ORAL BIOAVAILABILITY” value [1, 4] is listed as 42%, the “PLASMA PROTEIN BINDING” value (plasma protein; [4]) is listed as 90% and the “HALF-LIFE” value [2, 4] is listed as 24 h.

For `O=C(NCC1CCCCN1)c1cc(OCC(F)(F)F)ccc1OCC(F)(F)F` (stereo not shown) [Flecainide], the “ORAL BIOAVAILABILITY” value [1, 6] is given as 70-95%, the “PLASMA PROTEIN BINDING” value (plasma protein; [6]) is given as 40% and the “HALF-LIFE” value [2, 6] is given as 20 h.

For `CNCCC(Oc1ccc(C(F)(F)F)cc1)c1ccccc1` (stereo not shown) [Fluoxetine], the “ORAL BIOAVAILABILITY” value [1, 7] is listed as 60-80%, the “ORAL BIOAVAILABILITY” value [1, 6] is listed as 60-80% and the “PLASMA PROTEIN BINDING” value (plasma protein; [7]) is listed as 94.5%^. The “PLASMA PROTEIN BINDING” value (plasma protein; [6]) was 94.5%^, the HALF-LIFE [2, 7] was 96 to 140 h and the HALF-LIFE [2, 6] was 96 to 140 h.

In the case of `CCN(CC)CCN1C(=O)CN=C(c2ccccc2F)c2cc(Cl)ccc21` [Flurazepam (Dalmane), Flurazepam], the “ORAL BIOAVAILABILITY” value [1, 4] is listed as 83%, the “PLASMA PROTEIN BINDING” value (plasma protein; [4]) is listed as 97.2%^ and the “HALF-LIFE” value [2, 4] is listed as 2.3 h.

In the case of `CC(C)n1c(/C=C/C(O)CC(O)CC(=O)O)c(-c2ccc(F)cc2)c2ccccc21` (stereo not shown) [Fluvastatin], the “ORAL BIOAVAILABILITY” value [1, 7] is listed as 24%, the “PLASMA PROTEIN BINDING” value (plasma protein; [7]) is listed as 98% and the “HALF-LIFE” value [2, 7] is listed as 2.5 h.

In the case of `Cc1ccc(S(=O)(=O)NC(=O)NN2CC3CCCC3C2)cc1` (stereo not shown) [Gliclazide], the “ORAL BIOAVAILABILITY” value [1, 3] is given as 80%, the “PLASMA PROTEIN BINDING” value (plasma protein; [3]) is given as 85-99% ^ and the “HALF-LIFE” value [2, 3] is given as 8 to 12 h.

For `CCC1=C(C)CN(C(=O)NCCc2ccc(S(=O)(=O)NC(=O)N[C@H]3CC[C@H](C)CC3)cc2)C1=O` [Glimepiride], the “ORAL BIOAVAILABILITY” value [1, 7] is given as 100%, the “PLASMA PROTEIN BINDING” value (plasma protein; [7]) is given as greater than 99% and the “HALF-LIFE” value [2, 7] is given as 5 to 9.2 h.

For `O=C(CCCN1CCC(O)(c2ccc(Cl)cc2)CC1)c1ccc(F)cc1` [Haloperidol], the “ORAL BIOAVAILABILITY” value [1, 5] is given as 60%, the “ORAL BIOAVAILABILITY” value [1, 6] is given as 60% and the “PLASMA PROTEIN BINDING” value (plasma protein; [5]) is given as 88.4-92.5% ^. For the same molecule, the “PLASMA PROTEIN BINDING” value (plasma protein; [6]) was 88.4-92.5% ^, the “HALF-LIFE” value [2, 5] was 14 to 37 h and the “HALF-LIFE” value [2, 6] was 14 to 37 h.

In the case of `COc1ccc2c3c1O[C@H]1C(=O)CC[C@H]4[C@@H](C2)N(C)CC[C@]314` [Hydrocodone], the “ORAL BIOAVAILABILITY” value ([1]; in vivo, po) is listed as 25%, the “PLASMA PROTEIN BINDING” value (plasma protein; [6]) is listed as 19-45% ^ and the “HALF-LIFE” value ([2]; in vivo) is listed as 7 to 9 h.

For `COc1cc(C(C)=O)ccc1OCCCN1CCC(c2noc3cc(F)ccc23)CC1` [Iloperidone], the “ORAL BIOAVAILABILITY” value [1, 6] is listed as 96%, the “PLASMA PROTEIN BINDING” value (plasma protein; [6]) is listed as 95% and the “HALF-LIFE” value [2, 6] is listed as 18 to 33 h.

For `COc1ccc2c(c1)c(CC(=O)O)c(C)n2C(=O)c1ccc(Cl)cc1` [Indomethacin], the “ORAL BIOAVAILABILITY” value [1, 3] is listed as 100%, the “PLASMA PROTEIN BINDING” value (plasma protein; [3]) is listed as 99% and the “HALF-LIFE” value [2, 3] is listed as 4.5 h.

In the case of `CCCCC1=NC2(CCCC2)C(=O)N1Cc1ccc(-c2ccccc2-c2nnn[nH]2)cc1` [Irbesartan], the “ORAL BIOAVAILABILITY” value [1, 7] is listed as 60-80%, the “PLASMA PROTEIN BINDING” value (plasma protein; [7]) is listed as 90% and the “HALF-LIFE” value [2, 7] is listed as 11 to 15 h.

In the case of `COC(=O)C1=C(C)NC(C)=C(C(=O)OC(C)C)C1c1cccc2nonc12` (stereo not shown) [Isradipine (DynaCirc), Isradipine], the “ORAL BIOAVAILABILITY” value ([1]; cell marked CR, Table of Exemplary Drugs, CYP3A4) is listed as “CR: 15-24%”, the “ORAL BIOAVAILABILITY” value ([1]; cell marked IR, Table of Exemplary Drugs, CYP3A4) is listed as “IR 90-95%;” and the “PLASMA PROTEIN BINDING” value (plasma protein; [4]) is listed as 95%. For the same molecule, the “HALF-LIFE” value [2, 4] was 8 h.

In the case of `CNC1(c2ccccc2Cl)CCCCC1=O` (stereo not shown) [Ketamine], the “ORAL BIOAVAILABILITY” value ([1]; in vivo) is listed as “IM: 90-93%, PO: 16%”, the “PLASMA PROTEIN BINDING” value (plasma protein; plasma) is listed as 47% and the “HALF-LIFE” value ([2]; in vivo) is listed as 2 to 3 h.

In the case of `CC(=O)N1CCN(c2ccc(OCC3COC(Cn4ccnc4)(c4ccc(Cl)cc4Cl)O3)cc2)CC1` (stereo not shown) [Ketoconazole (Nizoral), Ketoconazole], the “ORAL BIOAVAILABILITY” value [1, 4] is given as 75%, the “PLASMA PROTEIN BINDING” value (plasma protein; [4]) is given as 99% and the “HALF-LIFE” value [2, 4] is given as 2 to 8 h.

In the case of `CN1C(C(=O)Nc2ccccn2)=C(O)c2sc(Cl)cc2S1(=O)=O` [Lornoxicam], the “ORAL BIOAVAILABILITY” value ([1]; cell marked IM, Table of Exemplary Drugs, CYP2C9) is given as “IM: 87%”, the “PLASMA PROTEIN BINDING” value (plasma protein; [7]) is given as 99.7%^ and the “HALF-LIFE” value [2, 7] is given as 4 h.

For `OC(c1cc(C(F)(F)F)nc2c(C(F)(F)F)cccc12)C1CCCCN1` (stereo not shown) [Mefloquine (Lariam), Mefloquine], the “ORAL BIOAVAILABILITY” value [1, 4] is given as 85%, the “PLASMA PROTEIN BINDING” value (plasma protein; [4]) is given as 98% and the HALF-LIFE [2, 4] is given as 3 weeks.
